From ChEMBL document CHEMBL5465560, “Selectivity Literature for EUbOPEN Chemogenomic Library” (2024)

Experiments:
[1] = test system: Epidermal growth factor receptor (Homo sapiens), P00533 [UNDEFINED MUTATION]; experiment: Selectivity interaction (KinomeScan (DiscoverX)) EUB0000229b EGFR; conditions: at 1 µM
[2] = molecular target: T1, Bone morphogenetic protein receptor type-2 (Homo sapiens) (UniProt Q13873); experiment: Selectivity interaction (KinomeScan (DiscoverX)) EUB0000607a BMPR2; conditions: at 10 µM
T1 sequence (whole entry): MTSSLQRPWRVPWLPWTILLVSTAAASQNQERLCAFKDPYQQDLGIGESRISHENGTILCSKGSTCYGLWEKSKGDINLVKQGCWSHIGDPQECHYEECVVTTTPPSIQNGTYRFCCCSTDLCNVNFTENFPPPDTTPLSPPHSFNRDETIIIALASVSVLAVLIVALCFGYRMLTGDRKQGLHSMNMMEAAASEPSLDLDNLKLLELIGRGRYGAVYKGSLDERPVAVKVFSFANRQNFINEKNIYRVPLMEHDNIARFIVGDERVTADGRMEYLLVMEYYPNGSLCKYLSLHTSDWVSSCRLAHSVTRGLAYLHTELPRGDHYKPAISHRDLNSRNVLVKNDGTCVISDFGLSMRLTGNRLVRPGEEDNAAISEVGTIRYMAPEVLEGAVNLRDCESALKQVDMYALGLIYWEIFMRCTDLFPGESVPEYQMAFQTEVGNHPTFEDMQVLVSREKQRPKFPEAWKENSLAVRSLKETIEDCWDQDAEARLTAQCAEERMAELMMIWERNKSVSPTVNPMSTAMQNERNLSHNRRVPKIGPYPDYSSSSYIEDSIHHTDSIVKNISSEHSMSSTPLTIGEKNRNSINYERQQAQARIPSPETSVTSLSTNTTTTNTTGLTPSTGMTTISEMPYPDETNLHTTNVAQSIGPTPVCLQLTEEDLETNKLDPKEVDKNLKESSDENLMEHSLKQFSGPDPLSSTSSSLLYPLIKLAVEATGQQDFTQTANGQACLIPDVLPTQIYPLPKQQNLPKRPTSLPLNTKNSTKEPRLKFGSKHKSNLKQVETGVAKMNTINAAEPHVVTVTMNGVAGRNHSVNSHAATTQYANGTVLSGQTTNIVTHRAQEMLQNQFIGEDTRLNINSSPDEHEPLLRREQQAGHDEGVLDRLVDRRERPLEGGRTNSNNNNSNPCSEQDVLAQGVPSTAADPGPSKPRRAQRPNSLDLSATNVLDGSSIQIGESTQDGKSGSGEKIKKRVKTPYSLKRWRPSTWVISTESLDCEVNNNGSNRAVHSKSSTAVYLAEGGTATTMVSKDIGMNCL

[3] = molecular target: T2, Cyclin-dependent kinase 11A (Homo sapiens) (UniProt Q9UQ88); experiment: Selectivity interaction (KinomeScan (DiscoverX)) EUB0000618a CDK11A; conditions: at 10 µM
T2 sequence (whole entry): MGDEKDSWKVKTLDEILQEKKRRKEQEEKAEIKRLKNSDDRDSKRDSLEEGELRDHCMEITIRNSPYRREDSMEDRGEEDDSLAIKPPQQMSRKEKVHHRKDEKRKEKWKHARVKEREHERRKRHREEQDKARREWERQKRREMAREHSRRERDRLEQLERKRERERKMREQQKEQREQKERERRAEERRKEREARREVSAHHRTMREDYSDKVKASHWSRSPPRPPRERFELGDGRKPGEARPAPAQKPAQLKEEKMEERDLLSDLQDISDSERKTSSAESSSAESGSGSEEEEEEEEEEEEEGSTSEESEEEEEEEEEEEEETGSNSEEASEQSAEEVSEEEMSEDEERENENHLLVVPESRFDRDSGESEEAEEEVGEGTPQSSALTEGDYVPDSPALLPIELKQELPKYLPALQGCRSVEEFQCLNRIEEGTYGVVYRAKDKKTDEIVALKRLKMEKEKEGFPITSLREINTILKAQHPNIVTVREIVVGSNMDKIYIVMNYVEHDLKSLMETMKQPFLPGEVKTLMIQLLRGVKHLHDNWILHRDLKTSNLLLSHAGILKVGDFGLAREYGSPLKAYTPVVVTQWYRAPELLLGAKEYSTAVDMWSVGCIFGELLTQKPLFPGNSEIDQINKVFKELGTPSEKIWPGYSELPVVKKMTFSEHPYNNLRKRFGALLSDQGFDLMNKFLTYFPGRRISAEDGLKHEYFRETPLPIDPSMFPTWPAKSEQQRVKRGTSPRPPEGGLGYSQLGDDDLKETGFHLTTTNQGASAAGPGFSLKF

[4] = molecular target: T3, cGMP-dependent protein kinase 2 (Homo sapiens) (UniProt Q13237); experiment: Selectivity interaction (Ambit KINOMEscan and KiNATiv profiling in Jurkat cells) EUB0000090b PRKG2; type: cell-based; conditions: at 1 µM
T3 sequence (whole entry): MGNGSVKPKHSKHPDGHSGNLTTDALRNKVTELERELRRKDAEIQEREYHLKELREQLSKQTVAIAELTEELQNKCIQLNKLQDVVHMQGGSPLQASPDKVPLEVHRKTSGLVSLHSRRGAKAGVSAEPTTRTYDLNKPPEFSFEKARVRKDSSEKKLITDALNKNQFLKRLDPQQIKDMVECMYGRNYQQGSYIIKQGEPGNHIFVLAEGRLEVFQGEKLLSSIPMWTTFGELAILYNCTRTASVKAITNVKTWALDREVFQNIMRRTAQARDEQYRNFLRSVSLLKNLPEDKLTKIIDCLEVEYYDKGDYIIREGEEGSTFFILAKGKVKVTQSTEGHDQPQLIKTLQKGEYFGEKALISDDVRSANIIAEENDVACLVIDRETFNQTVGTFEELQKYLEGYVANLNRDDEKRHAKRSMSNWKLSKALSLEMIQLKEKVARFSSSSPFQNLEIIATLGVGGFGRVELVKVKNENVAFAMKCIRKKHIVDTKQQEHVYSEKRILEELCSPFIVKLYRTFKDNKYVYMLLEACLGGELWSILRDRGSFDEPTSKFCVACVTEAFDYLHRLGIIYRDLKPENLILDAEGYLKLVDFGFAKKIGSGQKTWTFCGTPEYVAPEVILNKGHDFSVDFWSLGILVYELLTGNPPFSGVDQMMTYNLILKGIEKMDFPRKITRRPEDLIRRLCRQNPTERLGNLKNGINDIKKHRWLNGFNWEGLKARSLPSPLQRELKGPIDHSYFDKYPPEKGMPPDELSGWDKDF

Sequence of Epidermal growth factor receptor (Homo sapiens), P00533 [UNDEFINED MUTATION] (P00533 whole entry, looked up, change not shown): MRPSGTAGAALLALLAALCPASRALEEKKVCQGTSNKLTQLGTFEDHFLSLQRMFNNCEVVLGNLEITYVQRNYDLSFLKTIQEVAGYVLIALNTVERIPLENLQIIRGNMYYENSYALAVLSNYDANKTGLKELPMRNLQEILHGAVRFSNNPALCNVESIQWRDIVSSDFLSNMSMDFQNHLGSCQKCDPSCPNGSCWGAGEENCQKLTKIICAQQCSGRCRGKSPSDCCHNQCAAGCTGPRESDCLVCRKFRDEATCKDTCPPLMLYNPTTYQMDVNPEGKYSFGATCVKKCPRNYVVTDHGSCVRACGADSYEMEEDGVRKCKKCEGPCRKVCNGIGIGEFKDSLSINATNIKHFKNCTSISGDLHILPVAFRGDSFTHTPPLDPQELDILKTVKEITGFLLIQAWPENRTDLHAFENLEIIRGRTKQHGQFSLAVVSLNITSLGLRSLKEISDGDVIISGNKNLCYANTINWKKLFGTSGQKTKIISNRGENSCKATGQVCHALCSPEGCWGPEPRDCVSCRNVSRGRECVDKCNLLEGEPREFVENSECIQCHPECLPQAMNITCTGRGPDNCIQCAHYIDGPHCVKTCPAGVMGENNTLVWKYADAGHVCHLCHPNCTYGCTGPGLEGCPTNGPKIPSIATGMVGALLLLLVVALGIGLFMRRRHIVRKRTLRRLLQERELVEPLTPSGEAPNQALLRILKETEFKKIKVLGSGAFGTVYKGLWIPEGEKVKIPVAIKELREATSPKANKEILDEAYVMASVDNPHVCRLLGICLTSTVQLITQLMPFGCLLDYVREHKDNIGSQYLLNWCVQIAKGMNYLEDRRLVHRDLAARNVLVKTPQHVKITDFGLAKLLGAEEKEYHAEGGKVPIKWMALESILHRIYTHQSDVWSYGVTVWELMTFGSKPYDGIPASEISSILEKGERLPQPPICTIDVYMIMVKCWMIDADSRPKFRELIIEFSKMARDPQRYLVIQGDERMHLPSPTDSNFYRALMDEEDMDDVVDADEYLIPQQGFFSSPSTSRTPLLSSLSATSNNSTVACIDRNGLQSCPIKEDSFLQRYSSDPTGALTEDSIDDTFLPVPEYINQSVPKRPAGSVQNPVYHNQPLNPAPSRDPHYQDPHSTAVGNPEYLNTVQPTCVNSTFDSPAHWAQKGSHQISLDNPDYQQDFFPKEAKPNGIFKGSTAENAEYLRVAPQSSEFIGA

`COc1cc(N(C)c2ccnc3ccc(C(F)(F)F)cc23)cc(OC)c1OC` was tested, and the % binding [1] was 95%.

In the case of `CNC(=O)Nc1ccc(-c2nc(N3CC4CCC(C3)O4)c3cnn(C4CCC5(CC4)OCCO5)c3n2)cc1`, the % of control [2] is reported as 83%.

`O[C@H]1CC[C@H](Nc2ncc3nc(Nc4c(F)cc(F)cc4F)n([C@H]4CCOC4)c3n2)CC1` showed a % of control [3] of 98%.

For `CN(C)C/C=C/C(=O)Nc1ccc(C(=O)N2CCCC(Nc3ncc(Cl)c(-c4c[nH]c5ccccc45)n3)C2)cc1` (centres undefined), the % of control [4] was 95%.
